ChEMBL document CHEMBL5126508, “Therapeutic potential of quinazoline derivatives for Alzheimer's disease: A comprehensive review” (Eur J Med Chem, 2022)

Key:
Acetylcholinesterase [1] = biological target: T1, Acetylcholinesterase (Electrophorus electricus, UniProt O42275); experiment: Inhibition of electric eel AChE
Acetylcholinesterase [2] = biological target: T2, Acetylcholinesterase (Homo sapiens, UniProt P22303); experiment: Inhibition of human AChE
Cholinesterase [3] = biological target: T3, Cholinesterase (Equus caballus, UniProt P81908); experiment: Inhibition of equine serum BuChE
[4] = Ratio of IC50 for equine BuChE to IC50 for electric eel AChE
Cholinesterase [5] = biological target: T4, Cholinesterase (Homo sapiens, UniProt P06276); experiment: Inhibition of BuChE (unknown origin)
Acetylcholinesterase [6] = biological target: T2, Acetylcholinesterase; experiment: Inhibition of AChE (unknown origin)
[7] = biological target: Dual specificity tyrosine-phosphorylation-regulated kinase 1A (Homo sapiens, UniProt Q13627); experiment: Inhibition of DYRK1A (unknown origin)
[8] = biological target: T5, Cyclin-dependent kinase 5 (Homo sapiens, UniProt Q00535); experiment: Inhibition of CDK5 (unknown origin) at 1 uM relative to control
Target sequence in this assay (Q00535 whole entry, looked up): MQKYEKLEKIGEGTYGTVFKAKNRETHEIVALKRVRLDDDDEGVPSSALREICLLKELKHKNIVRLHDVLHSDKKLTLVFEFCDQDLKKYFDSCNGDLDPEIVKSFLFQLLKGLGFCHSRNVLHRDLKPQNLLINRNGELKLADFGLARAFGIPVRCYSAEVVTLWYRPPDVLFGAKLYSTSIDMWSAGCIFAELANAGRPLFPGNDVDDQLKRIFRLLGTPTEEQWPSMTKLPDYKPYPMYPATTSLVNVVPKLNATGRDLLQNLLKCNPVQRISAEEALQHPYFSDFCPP

[9] = biological target: T6, Glycogen synthase kinase-3 (Homo sapiens, UniProt P49840+P49841); experiment: Inhibition of GSK3alpha/beta (unknown origin) at 1 uM relative to control; type: protein assay
[10] = biological target: T7, Casein kinase I delta/epsilon (Homo sapiens, UniProt P48730+P49674); experiment: Inhibition of CK1delta/epsilon (unknown origin); type: protein-complex assay
[11] = Antioxidant activity assessed as radical scavenging at 100 ug/ml by DPPH assay relative to control; type: functional
[12] = biological target: T8, Amyloid-beta precursor protein (Homo sapiens, UniProt P05067); experiment: Inhibition of amyloid beta 1 to 40 aggregation in human SH-SY5Y cells; type: cell-based
[13] = biological target: T8, Amyloid-beta precursor protein; experiment: Inhibition of amyloid beta 1 to 42 aggregation in human SH-SY5Y cells; type: cell-based
[14] = Inhibition of PDE7 (unknown origin); set-up: species or system Homo sapiens
[15] = Inhibition of Kainate receptor (unknown origin); set-up: species or system Homo sapiens
[16] = biological target: T9, Amine oxidase [flavin-containing] A (Homo sapiens, UniProt P21397); experiment: Inhibition of MAO-A (unknown origin)
T9 sequence (P21397 whole entry): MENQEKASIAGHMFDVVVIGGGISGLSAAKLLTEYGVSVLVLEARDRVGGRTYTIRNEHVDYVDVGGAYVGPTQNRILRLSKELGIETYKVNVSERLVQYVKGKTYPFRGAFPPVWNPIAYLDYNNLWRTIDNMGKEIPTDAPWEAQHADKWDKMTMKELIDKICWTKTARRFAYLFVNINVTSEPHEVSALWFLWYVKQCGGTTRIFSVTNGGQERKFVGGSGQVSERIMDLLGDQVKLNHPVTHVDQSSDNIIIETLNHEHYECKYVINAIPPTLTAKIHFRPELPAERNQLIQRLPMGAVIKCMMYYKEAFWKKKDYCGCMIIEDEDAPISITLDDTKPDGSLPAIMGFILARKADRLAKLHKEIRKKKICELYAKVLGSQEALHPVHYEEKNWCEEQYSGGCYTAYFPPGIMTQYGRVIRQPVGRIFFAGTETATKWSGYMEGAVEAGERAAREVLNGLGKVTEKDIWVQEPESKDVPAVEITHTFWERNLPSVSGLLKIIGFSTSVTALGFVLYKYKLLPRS

[17] = biological target: T10, Amine oxidase [flavin-containing] B (Homo sapiens, UniProt P27338); experiment: Inhibition of MAO-B (unknown origin)
T10 sequence (P27338 whole entry): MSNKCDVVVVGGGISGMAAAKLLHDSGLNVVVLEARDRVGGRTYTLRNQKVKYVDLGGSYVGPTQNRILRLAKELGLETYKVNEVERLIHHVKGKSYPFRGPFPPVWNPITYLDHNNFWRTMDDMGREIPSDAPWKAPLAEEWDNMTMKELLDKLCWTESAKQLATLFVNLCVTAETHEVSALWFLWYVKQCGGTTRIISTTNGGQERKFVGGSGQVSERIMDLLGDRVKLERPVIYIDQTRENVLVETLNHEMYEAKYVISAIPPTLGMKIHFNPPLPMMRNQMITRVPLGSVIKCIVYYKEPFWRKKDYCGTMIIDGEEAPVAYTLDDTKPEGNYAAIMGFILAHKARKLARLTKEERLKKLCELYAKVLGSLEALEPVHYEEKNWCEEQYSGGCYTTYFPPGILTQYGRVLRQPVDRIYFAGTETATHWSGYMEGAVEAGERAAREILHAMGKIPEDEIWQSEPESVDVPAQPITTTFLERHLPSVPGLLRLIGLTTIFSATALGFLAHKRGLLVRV

[18] = Ratio of IC50 for electric eel AChE to ratio of IC50 for equine BuChE
Cholinesterase [19] = biological target: T3, Cholinesterase; experiment: Inhibition of equine serum BuChE incubated measured after 25 mins by spectrophotometric analysis; type: cell-free
Acetylcholinesterase [20] = biological target: T2, Acetylcholinesterase; experiment: Inhibition of AChE (unknown origin) incubated for 20 mins by TLC analysis
[21] = biological target: T6, Glycogen synthase kinase-3; experiment: Inhibition of GSK3alpha/beta (unknown origin); type: protein assay
[22] = biological target: T5, Cyclin-dependent kinase 5; experiment: Inhibition of CDK5 (unknown origin)
Target sequence in this assay (Q00535 whole entry): as the sequence (Q00535 whole entry, looked up) above

[23] = biological target: Cyclin-dependent kinase 1 (Homo sapiens, UniProt P06493); experiment: Inhibition of CDK1 (unknown origin)
Acetylcholinesterase [24] = biological target: T1, Acetylcholinesterase; experiment: Inhibition of electric eel AChE using acetylthiocholine incubated for 30 mins by measuring hydrolysis of substrate by Ellman's method
[25] = Antioxidant activity assessed as radical scavenging incubated for 90 mins in dark DPPH assay; type: functional
Beta-secretase 1 [26] = biological target: T11, Beta-secretase 1 (Homo sapiens, UniProt P56817); experiment: Inhibition of BACE1 (unknown origin) incubated in dark for 90 mins by FRET assay
Acetylcholinesterase [27] = biological target: T1, Acetylcholinesterase; experiment: Inhibition of electric eel AChE incubated measured after 25 mins by spectrophotometric analysis
SH-SY5Y = experiment: Cytotoxicity against human SH-SY5Y cells; type: functional, cell-based
Beta-secretase 1 [28] = biological target: T11, Beta-secretase 1; experiment: Inhibition of recombinant human BACE1 in human SH-SY5Y cells using fluorogenic 7-methoxycoumarin-4-yl)acetyl-Ser-Glu-Val-Asn-Leu-Asp-Ala-Glu-Phe-ArgLys(2, 4-dinitrophenyl)-Arg-Arg-NH2 as substrate measured every 5 mins for 120 mins by WCA; type: cell-based
Beta-secretase 1 [29] = biological target: T11, Beta-secretase 1; experiment: Inhibition of recombinant human BACE1 using fluorogenic 7-methoxycoumarin-4-yl)acetyl-Ser-Glu-Val-Asn-Leu-Asp-Ala-Glu-Phe-ArgLys(2, 4-dinitrophenyl)-Arg-Arg-NH2 as substrate measured every 5 mins for 120 mins by CFA
Cholinesterase [30] = biological target: T4, Cholinesterase; experiment: Inhibition of BuChE (unknown origin) at 100 uM relative to control
Acetylcholinesterase [31] = biological target: T1, Acetylcholinesterase; experiment: Inhibition of electric eel AChE incubated for 25 mins by Ellman's method
[32] = biological target: T7, Casein kinase I delta/epsilon; experiment: Inhibition of CK1delta/epsilon (unknown origin) at 1 uM relative to control; type: protein-complex assay

T1 sequence (O42275 whole entry): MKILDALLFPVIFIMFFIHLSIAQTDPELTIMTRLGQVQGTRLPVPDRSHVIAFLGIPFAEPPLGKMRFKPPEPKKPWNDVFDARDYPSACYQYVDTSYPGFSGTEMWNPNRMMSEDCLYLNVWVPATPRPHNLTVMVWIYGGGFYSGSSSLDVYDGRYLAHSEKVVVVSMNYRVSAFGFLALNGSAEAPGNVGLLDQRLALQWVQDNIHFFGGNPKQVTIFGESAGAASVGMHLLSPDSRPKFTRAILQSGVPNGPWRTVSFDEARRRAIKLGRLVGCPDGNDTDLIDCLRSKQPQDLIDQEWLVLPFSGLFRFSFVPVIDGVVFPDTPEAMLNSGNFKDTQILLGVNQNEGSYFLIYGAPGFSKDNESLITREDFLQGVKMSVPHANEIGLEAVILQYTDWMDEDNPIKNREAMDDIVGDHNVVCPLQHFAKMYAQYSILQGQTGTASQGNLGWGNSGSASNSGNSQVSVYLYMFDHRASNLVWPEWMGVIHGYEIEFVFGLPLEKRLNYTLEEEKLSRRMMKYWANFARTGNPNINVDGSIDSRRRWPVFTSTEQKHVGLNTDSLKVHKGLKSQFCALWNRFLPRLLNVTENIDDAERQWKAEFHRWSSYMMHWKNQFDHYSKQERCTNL
Chain of Cyclin-dependent kinase 1 (P06493 whole entry): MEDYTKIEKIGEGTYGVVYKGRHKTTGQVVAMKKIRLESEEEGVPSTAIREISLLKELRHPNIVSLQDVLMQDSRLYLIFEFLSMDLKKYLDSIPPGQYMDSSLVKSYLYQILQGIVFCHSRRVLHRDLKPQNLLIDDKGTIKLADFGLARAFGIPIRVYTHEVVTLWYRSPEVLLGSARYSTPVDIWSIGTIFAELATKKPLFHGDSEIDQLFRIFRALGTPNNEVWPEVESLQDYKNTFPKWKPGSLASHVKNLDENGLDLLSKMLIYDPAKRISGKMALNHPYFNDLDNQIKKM
T3 sequence (P81908 whole entry): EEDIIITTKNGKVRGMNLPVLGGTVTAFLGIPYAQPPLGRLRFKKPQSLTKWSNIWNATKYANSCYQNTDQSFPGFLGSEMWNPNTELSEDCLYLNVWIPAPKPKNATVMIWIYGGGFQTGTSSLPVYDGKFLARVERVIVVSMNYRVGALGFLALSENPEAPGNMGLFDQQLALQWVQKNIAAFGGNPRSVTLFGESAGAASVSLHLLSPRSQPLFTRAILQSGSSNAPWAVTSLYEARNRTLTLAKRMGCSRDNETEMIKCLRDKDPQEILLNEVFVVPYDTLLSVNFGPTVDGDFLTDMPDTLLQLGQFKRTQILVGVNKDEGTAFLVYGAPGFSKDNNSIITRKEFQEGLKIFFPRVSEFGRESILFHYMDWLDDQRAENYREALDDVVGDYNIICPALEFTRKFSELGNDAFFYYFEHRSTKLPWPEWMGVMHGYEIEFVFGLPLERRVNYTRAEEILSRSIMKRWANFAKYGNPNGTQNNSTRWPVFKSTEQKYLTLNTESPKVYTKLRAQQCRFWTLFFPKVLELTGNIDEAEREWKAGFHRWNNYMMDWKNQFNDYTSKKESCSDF
T11 sequence (P56817 whole entry): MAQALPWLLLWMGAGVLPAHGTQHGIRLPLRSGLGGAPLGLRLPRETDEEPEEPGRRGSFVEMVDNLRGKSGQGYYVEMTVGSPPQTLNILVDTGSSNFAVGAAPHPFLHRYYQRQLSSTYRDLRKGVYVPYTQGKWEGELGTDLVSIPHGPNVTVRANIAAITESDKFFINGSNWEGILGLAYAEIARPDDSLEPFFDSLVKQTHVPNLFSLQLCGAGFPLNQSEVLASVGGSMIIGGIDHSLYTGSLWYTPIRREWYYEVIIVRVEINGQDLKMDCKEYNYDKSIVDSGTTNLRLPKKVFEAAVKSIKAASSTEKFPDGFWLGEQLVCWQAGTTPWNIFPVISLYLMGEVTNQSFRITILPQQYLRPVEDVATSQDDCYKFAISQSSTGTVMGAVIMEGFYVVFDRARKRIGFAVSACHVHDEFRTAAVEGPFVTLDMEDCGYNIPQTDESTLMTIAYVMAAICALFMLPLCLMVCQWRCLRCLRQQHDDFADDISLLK
T4 sequence (P06276 whole entry): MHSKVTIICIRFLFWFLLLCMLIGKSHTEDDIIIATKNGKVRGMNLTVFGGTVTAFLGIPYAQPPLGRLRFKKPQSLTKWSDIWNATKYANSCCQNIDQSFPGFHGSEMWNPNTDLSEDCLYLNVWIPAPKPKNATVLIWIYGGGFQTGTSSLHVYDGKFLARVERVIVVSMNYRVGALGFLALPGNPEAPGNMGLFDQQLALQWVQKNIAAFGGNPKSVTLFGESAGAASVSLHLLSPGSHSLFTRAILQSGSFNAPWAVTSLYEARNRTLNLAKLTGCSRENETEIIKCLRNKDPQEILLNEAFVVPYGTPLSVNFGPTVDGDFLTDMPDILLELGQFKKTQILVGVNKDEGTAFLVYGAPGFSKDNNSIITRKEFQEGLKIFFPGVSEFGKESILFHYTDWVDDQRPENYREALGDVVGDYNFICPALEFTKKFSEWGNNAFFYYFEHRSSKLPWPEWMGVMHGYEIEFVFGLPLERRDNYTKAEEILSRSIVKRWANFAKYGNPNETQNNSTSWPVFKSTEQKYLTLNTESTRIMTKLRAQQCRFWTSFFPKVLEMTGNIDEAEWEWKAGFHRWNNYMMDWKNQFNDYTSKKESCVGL
T2 sequence (P22303 whole entry): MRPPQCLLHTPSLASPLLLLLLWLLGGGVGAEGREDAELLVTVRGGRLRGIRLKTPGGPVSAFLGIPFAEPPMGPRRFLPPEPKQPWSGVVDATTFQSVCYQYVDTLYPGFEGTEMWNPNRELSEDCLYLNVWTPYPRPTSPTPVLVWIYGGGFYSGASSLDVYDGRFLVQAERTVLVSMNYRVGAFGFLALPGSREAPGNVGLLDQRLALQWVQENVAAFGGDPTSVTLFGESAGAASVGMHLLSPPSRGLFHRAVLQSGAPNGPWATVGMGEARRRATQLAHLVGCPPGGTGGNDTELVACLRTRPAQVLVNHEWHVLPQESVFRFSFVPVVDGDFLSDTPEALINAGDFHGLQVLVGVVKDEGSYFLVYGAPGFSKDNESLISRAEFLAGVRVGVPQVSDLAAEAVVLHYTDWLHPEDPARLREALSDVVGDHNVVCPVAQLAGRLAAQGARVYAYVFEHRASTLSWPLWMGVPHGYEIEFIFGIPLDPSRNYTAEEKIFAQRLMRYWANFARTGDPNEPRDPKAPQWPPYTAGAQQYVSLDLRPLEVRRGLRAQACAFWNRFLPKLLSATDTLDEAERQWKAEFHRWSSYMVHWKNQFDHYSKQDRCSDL
T6 sequence (P49840 whole entry, looked up): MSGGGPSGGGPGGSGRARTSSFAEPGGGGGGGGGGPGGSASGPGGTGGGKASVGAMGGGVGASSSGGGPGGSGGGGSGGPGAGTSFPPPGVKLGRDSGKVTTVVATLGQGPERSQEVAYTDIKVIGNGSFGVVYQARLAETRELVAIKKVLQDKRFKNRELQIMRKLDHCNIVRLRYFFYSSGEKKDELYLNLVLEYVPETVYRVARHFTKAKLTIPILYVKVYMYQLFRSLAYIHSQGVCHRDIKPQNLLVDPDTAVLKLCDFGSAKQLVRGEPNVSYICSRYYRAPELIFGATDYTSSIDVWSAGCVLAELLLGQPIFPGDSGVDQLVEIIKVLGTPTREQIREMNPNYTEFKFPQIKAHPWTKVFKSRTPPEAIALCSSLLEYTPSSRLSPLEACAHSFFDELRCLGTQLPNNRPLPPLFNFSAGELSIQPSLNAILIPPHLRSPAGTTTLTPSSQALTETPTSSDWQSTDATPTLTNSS
T6 sequence (P49841 whole entry, looked up): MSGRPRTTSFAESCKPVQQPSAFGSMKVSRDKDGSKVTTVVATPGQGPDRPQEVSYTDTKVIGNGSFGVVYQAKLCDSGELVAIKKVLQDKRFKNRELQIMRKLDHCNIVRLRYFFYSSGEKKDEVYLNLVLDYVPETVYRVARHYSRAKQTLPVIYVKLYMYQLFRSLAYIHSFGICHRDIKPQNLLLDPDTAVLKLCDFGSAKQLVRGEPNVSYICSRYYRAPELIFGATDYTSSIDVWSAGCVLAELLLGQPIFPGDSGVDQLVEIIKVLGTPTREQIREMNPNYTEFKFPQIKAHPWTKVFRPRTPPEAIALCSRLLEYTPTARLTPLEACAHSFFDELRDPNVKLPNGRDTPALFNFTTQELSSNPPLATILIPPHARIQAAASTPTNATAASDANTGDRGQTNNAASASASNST

c1cc2c(cc1OCCCN1CCCCC1)CN1CCCCCC1=N2
IC50 (Acetylcholinesterase [1]): 0.043 µM
IC50 (Acetylcholinesterase [2]): 0.82 µM
IC50 (Cholinesterase [3]): 0.0127 µM
Ratio IC50 [4]: 0.296

O=c1c2ccccc2nc2n1C(C1CN=Cc3[nH]c4ccccc4c31)CC2O (stereo unspecified)
IC50 (Cholinesterase [5]): 9.26 µM
IC50 (Acetylcholinesterase [6]): 40.5 µM

Nc1ncc2cc3cnccc3cc2n1
IC50 [7]: 0.18 µM
inhibition [8]: > 10%
inhibition [9]: > 10%
IC50 [10]: 0.8 µM

CSc1nc2nc(NNC(=S)NC3CCCCC3)c3ccccc3n2n1
inhibition [11]: 91.2%

COc1cc(/C=C/c2nc3cc(Cl)ccc3c(=O)[nH]2)ccc1-n1cnc(C)c1
IC50 [12]: > 10 µM
IC50 [13]: 0.66 µM

OC1CCN2Cc3ccccc3N=C12 (stereo unspecified)
IC50 (Cholinesterase [5]): 2.6 µM
IC50 (Acetylcholinesterase [6]): 13.7 µM

O=c1c2cccc(Cl)c2[nH]c(=S)n1-c1c(F)cccc1F
IC50 [14]: 6.1 µM

c1ccc2c(c1)CCCN1Cc3cc(OCCCN4CCCCC4)ccc3N=C21
IC50 (Acetylcholinesterase [1]): 0.0571 µM
IC50 (Acetylcholinesterase [2]): 0.535 µM
IC50 (Cholinesterase [3]): 2.67 µM
Ratio IC50 [4]: 47

c1cc2c(cc1OCCCN1CCCCC1)CN1CCCC1=N2
IC50 (Acetylcholinesterase [1]): 0.0692 µM
IC50 (Acetylcholinesterase [2]): 1.1 µM
IC50 (Cholinesterase [3]): 0.122 µM
Ratio IC50 [4]: 1.76

O=C(O)c1cc2c3cc(-n4cnnc4)c(Cl)cc3[nH]c(=O)n2n1
IC50 [15]: 5.5 µM

O=C(CCN1CCCCC1)Nc1ccc2nc(-c3cc4ccccc4[nH]3)[nH]c(=O)c2c1
IC50 (Cholinesterase [5]): 7.32 µM

NNC(=O)CN1C(=O)c2ccccc2NC1c1ccc2c(c1)OCO2 (stereo unspecified)
IC50 [16]: 0.0021 µM
IC50 [17]: 83 µM

O=c1c2ccccc2nc2n1CCC2 [DEOXYVASICINONE]
IC50 (Cholinesterase [5]): 17.8 µM
IC50 (Acetylcholinesterase [6]): 35.2 µM

CC(C)CC1(CC(C)C)NC(=O)c2ccccc2N1Cc1ccc(Cl)cc1
Ratio IC50 [18]: 2.6
IC50 (Cholinesterase [19]): 1.56 µM

O=c1c2ccccc2nc2n1CC[C@@H]2[C@@H]1CCCN1
IC50 (Cholinesterase [5]): > 500 µM
IC50 (Acetylcholinesterase [20]): 5.71 µM

COC(=N)c1nc2ccc3ncnc(Nc4ccc(OC)cc4)c3c2s1
IC50 [21]: 0.2 µM
IC50 [22]: > 10 µM
IC50 [23]: > 10 µM

O=c1c2cccc(Cl)c2[nH]c(=S)n1-c1ccccc1Br
IC50 [14]: 1.8 µM

CSc1nc2nc(NN)c3ccccc3n2n1
inhibition [11]: 85.9%

CSc1nc2nc(N/N=C/c3cccnc3)c3ccccc3n2n1
inhibition [11]: 62%

c1ccc2c(c1)CCN1Cc3cc(OCCCN4CCCCC4)ccc3N=C21
IC50 (Acetylcholinesterase [1]): 0.0055 µM
IC50 (Acetylcholinesterase [2]): 0.216 µM
IC50 (Cholinesterase [3]): 0.955 µM
Ratio IC50 [4]: 174

c1ccc2c(c1)CN1Cc3cc(OCCCN4CCCCC4)ccc3N=C21
IC50 (Acetylcholinesterase [1]): 0.0069 µM
IC50 (Acetylcholinesterase [2]): 0.142 µM
IC50 (Cholinesterase [3]): 4.14 µM
Ratio IC50 [4]: 600

COC(=N)c1nc2ccc3ncnc(Nc4ccc5c(c4)OCO5)c3c2s1
IC50 [21]: 0.66 µM
IC50 [22]: > 10 µM
IC50 [23]: > 10 µM

CN1C(=O)C2(Nc3cc(Cl)ccc3-c3ccnn32)c2cc(Cl)ccc21 (stereo unspecified)
IC50 (Cholinesterase [5]): 219 µM
IC50 (Acetylcholinesterase [24]): 88.2 µM

Cn1c(N/N=C/c2ccc(O)cc2O)nc2ccccc2c1=O
IC50 [25]: 8.4 µM
IC50 (Beta-secretase 1 [26]): 27.6 µM

CC(C)CC1(CC(C)C)NC(=O)c2ccccc2N1Cc1ccccc1
Ratio IC50 [18]: 3.1
IC50 (Cholinesterase [19]): 2.48 µM

c1cc2c(cc1OCCCN1CCCCC1)CN1CCCCC1=N2
IC50 (Acetylcholinesterase [1]): 0.0333 µM
IC50 (Acetylcholinesterase [2]): 0.225 µM
IC50 (Cholinesterase [3]): 0.00655 µM
Ratio IC50 [4]: 0.197

O=c1[nH]c(CCCO)nc2ccccc12
IC50 (Cholinesterase [5]): 105 µM
IC50 (Acetylcholinesterase [6]): 155 µM

O=c1c2ccccc2nc2n1C(c1cncc3[nH]c4ccccc4c13)CC2O (stereo unspecified)
IC50 (Cholinesterase [5]): 18.2 µM
IC50 (Acetylcholinesterase [6]): 70.5 µM

Cn1c(N/N=C/c2cccc(Cl)c2Cl)nc2ccccc2c1=O
IC50 [25]: > 100 µM

C=CCNC(=S)NNc1nc2nc(SC)nn2c2ccccc12
inhibition [11]: 91%

c1ccc2c(c1)CN1CCCC1=N2
IC50 (Cholinesterase [5]): 0.04 µM
IC50 (Acetylcholinesterase [6]): 2.37 µM

O=C(O)C1=Nc2ccccc2CN1
IC50 (Cholinesterase [5]): > 1000 µM
IC50 (Acetylcholinesterase [6]): 345 µM

Cn1c(N/N=C(\C=C\c2cccc(Cl)c2)c2ccccc2)nc2ccccc2c1=O
IC50 [16]: 468 µM
IC50 [17]: 1.15 µM

CC1(c2ccc(Cl)cc2)NC(=O)c2cc(Br)cc(Br)c2N1 (stereo unspecified)
Ratio IC50 [18]: 2.3
IC50 (Cholinesterase [19]): 3.7 µM
IC50 (Acetylcholinesterase [27]): 1.6 µM

CC1c2cc(Oc3ccccc3)ccc2N=C(N)N1CCCC(=O)N(Cc1cnn(C)c1)C1CCCCC1 (stereo unspecified)
IC50 (SH-SY5Y): 12.5 µM
IC50 (Beta-secretase 1 [28]): 0.14 µM
IC50 (Beta-secretase 1 [29]): 0.38 µM

O=c1c2ccccc2nc2n1CCC2O (stereo unspecified)
IC50 (Cholinesterase [5]): 10.2 µM
IC50 (Acetylcholinesterase [6]): 76.6 µM

Cc1ccccc1-n1c(SCC(=O)N/N=C/c2ccc(Br)cc2)nc2ccccc2c1=O
inhibition (Cholinesterase [30]): 6.8%
IC50 (Acetylcholinesterase [31]): 210 µM

COC(=N)c1nc2ccc3ncnc(Nc4ccc(Br)cc4F)c3c2s1
IC50 [21]: 0.16 µM
IC50 [22]: > 10 µM
IC50 [23]: > 10 µM

CC1(c2ccc(Cl)cc2)Nc2cc(Cl)ccc2-c2ccnn21 (stereo unspecified)
IC50 (Cholinesterase [5]): > 379 µM
IC50 (Acetylcholinesterase [24]): 358 µM

Nc1ncc2ccc3ccncc3c2n1
IC50 [7]: 2.18 µM
inhibition [8]: 100%
inhibition [9]: 98%
inhibition [32]: 98%

Cn1cc(CN(C(=O)CCCN2C(N)=Nc3ccc(Oc4ccccc4)cc3C2CC2CCCCC2)C2CCCCC2)cn1 (stereo unspecified)
IC50 (SH-SY5Y): 11.8 µM
IC50 (Beta-secretase 1 [28]): 0.14 µM
IC50 (Beta-secretase 1 [29]): 0.49 µM

O=Cc1ccn(-c2cc3c(cc2Cl)nc(O)n2nc(C(=O)O)cc32)c1
IC50 [15]: 5.1 µM
